US12258327B2, “5-membered heteroaryl-containing aminopyridine compounds as EGFR inhibitors” (YUHAN CORPORATION, priority 2021, dated 2025)
Read-outs that look alike come from different tables or passages of the source.

How the values were obtained:
[1] = biological target: EGFR del19/T790M/C797S (Homo sapiens, UniProt P00533, C797S/DEL746-750/T790M); test: Biochemical EGFR kinase assay (Lance Ultra TR-FRET), triple mutant del19/T790M/C797S
How it was run: (§1)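 Kinase activity is measured by TR-FRET phosphopeptide detection. Compounds span 0.003 μM to 10 μM; the 1 h reaction at room temperature is quenched with EDTA, then labelled antibody (2 nM) is incubated 60 min before reading.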

[2] = biological target: EGFR L858R/T790M/C797S (Homo sapiens, UniProt P00533, C797S/L858R/T790M); test: Biochemical EGFR kinase assay (Lance Ultra TR-FRET), triple mutant L858R/T790M/C797S
EGFR L858R/T790M/C797S, sequence (P00533 25-1210 T790M/C797S/L858R): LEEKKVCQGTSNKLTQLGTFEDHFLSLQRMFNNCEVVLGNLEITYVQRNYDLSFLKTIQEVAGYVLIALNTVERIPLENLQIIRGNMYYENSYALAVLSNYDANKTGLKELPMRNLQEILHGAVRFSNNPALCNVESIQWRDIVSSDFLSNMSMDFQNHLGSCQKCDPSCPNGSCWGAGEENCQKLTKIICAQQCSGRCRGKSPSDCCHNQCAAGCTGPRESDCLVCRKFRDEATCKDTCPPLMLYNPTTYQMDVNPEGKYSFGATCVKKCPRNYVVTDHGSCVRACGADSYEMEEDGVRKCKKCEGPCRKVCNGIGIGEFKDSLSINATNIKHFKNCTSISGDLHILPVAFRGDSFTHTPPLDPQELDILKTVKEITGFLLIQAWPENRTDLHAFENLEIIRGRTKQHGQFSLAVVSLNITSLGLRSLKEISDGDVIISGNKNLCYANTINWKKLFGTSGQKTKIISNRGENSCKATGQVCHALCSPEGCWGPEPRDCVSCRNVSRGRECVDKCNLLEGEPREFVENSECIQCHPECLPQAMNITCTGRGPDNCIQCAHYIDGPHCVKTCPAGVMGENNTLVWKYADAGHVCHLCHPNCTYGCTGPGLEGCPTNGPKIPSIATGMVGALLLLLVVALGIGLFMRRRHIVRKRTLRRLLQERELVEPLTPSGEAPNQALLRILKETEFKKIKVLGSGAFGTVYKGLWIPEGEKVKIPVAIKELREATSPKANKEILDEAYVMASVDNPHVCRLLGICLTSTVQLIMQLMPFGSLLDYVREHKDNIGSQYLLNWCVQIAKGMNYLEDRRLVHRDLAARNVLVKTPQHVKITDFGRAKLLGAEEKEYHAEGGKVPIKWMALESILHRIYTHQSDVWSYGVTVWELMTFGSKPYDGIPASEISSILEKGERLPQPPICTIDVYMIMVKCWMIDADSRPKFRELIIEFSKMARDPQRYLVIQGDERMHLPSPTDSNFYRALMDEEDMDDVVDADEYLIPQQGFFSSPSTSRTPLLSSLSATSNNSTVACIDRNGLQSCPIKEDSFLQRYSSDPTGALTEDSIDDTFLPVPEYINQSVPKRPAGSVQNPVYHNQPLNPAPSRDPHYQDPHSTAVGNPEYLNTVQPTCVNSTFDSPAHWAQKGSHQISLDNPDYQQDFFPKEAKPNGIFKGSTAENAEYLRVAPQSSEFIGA
How it was run: as §1

[3] = biological target: EGFR del19/C797S (Homo sapiens, UniProt P00533, C797S/DEL746-750); test: Biochemical EGFR kinase assay (Lance Ultra TR-FRET), double mutant del19/C797S
EGFR del19/C797S, sequence (P00533 with tags, fused parts or gaps DEL746-750/C797S): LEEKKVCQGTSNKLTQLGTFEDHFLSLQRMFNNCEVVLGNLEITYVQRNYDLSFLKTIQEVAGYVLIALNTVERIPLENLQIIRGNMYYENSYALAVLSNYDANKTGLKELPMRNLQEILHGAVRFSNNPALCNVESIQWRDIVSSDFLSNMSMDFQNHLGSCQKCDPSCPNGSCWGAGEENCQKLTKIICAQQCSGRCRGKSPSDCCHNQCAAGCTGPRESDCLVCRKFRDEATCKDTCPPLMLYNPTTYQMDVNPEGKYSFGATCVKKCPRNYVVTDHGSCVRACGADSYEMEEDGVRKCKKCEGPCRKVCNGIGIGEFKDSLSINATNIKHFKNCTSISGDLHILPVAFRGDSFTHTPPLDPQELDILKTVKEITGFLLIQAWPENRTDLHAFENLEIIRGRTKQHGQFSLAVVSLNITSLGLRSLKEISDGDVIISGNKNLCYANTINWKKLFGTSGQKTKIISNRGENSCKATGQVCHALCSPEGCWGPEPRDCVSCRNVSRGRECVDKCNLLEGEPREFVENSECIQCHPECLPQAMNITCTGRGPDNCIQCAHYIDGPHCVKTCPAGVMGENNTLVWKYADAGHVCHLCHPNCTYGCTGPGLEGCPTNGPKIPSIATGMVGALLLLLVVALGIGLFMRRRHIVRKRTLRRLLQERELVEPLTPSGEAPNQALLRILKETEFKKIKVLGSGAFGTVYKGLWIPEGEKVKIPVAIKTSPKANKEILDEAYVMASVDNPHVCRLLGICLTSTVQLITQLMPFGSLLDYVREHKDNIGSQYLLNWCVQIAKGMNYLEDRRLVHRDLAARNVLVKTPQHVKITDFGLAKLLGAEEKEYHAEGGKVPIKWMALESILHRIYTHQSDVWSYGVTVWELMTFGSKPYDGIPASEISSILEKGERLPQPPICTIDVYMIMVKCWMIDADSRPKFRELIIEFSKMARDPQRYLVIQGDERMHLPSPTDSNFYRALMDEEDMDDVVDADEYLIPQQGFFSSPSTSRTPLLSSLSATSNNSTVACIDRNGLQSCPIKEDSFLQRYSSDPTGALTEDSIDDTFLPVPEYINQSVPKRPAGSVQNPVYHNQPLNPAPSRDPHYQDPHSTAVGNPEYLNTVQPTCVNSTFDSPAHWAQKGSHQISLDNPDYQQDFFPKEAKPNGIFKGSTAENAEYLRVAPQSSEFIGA
How it was run: as §1

[4] = biological target: EGFR L858R/C797S (Homo sapiens, UniProt P00533, C797S/L858R); test: Biochemical EGFR kinase assay (Lance Ultra TR-FRET), double mutant L858R/C797S
How it was run: as §1

[5] = biological target: EGFR wildtype (WT) (Homo sapiens, UniProt P00533); test: Biochemical EGFR kinase assay (Lance Ultra TR-FRET), wildtype
EGFR wildtype (WT), sequence (P00533 25-1210): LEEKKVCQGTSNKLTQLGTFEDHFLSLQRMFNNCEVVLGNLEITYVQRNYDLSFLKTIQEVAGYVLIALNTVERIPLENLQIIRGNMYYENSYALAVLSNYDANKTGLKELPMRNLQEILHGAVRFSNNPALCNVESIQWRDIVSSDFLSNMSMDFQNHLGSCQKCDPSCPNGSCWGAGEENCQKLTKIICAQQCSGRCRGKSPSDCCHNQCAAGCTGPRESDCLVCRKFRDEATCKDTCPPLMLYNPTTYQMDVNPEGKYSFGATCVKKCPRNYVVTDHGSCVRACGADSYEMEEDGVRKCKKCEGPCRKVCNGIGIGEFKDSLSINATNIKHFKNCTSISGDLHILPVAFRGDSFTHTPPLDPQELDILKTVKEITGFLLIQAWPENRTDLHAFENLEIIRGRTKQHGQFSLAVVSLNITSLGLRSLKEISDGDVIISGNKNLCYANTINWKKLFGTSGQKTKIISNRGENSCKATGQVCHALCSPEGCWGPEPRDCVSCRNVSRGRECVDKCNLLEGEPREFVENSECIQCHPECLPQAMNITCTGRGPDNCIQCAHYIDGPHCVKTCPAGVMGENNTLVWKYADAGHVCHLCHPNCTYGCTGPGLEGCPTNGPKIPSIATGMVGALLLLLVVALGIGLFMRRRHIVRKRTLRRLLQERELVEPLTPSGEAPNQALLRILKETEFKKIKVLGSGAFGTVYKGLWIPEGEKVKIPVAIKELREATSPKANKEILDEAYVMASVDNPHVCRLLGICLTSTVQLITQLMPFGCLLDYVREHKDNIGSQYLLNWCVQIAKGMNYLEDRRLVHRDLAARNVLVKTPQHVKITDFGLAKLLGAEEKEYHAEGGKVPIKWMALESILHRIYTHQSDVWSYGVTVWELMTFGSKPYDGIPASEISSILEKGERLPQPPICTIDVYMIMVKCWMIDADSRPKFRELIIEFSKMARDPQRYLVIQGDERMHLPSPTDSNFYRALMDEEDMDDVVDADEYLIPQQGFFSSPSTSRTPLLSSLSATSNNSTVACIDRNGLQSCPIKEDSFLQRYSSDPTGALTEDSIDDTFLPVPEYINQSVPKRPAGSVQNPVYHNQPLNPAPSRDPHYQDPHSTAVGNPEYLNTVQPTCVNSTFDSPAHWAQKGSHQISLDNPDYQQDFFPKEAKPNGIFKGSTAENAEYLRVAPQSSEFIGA
How it was run: as §1

[6] = Km ATP, read-out: IC50 del19/T790M/C797S (nM) Km ATP
[7] = Km ATP, read-out: IC50 L858R/T790M/C797S (nM) Km ATP
[8] = Km ATP, read-out: IC50 del19/C797S (nM) Km ATP
[9] = Km ATP, read-out: IC50 L858R/C797S (nM) Km ATP
[10] = Km ATP, read-out: IC50 WT (nM) Km ATP
[11] = IC50 del19/T790M/C797S (nM) 100 μM ATP, 100 μM ATP
[12] = IC50 L858R/T790M/C797S (nM) 100 μM ATP, 100 μM ATP
[13] = IC50 del19/C797S (nM) 100 μM ATP, 100 μM ATP
[14] = IC50 L858R/C797S (nM) 100 μM ATP, 100 μM ATP
[15] = IC50 WT (nM) 100 μM ATP, 100 μM ATP

EGFR del19/T790M/C797S, sequence (P00533 with tags, fused parts or gaps DEL746-750/T790M/C797S): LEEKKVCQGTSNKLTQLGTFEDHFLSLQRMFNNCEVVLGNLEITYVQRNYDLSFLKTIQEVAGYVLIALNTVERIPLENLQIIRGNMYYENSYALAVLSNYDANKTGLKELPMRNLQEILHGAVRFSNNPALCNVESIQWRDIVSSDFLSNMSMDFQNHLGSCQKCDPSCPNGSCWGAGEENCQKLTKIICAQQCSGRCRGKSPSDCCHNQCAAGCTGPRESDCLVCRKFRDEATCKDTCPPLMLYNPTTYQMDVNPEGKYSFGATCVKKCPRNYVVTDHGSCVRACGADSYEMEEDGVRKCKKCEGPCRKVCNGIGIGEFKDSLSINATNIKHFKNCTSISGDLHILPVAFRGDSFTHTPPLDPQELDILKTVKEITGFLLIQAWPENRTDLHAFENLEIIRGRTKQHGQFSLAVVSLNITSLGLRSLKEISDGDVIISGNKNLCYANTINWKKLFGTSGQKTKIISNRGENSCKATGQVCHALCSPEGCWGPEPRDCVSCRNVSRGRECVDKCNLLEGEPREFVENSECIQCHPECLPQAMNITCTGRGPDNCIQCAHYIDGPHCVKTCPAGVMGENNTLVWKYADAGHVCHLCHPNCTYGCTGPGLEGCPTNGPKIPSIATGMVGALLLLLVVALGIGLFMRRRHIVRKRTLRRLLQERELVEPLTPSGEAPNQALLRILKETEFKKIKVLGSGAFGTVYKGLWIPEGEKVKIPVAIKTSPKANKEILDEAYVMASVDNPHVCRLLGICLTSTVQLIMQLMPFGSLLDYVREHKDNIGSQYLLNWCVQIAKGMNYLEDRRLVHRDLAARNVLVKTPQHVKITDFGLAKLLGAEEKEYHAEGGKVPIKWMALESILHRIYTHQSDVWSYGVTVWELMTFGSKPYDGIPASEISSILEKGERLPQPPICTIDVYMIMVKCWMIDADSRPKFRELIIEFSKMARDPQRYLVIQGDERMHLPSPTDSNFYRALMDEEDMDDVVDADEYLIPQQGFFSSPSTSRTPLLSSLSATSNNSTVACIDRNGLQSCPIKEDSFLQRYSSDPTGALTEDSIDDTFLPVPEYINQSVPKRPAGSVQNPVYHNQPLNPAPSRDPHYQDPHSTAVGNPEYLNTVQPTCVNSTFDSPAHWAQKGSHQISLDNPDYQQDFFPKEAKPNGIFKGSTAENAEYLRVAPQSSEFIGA

IC50 [1, 6]	IC50 [2, 7]	IC50 [3, 8]	IC50 [4, 9]	IC50 [5, 10]	IC50 [1, 11]	IC50 [2, 12]	IC50 [3, 13]	IC50 [4, 14]	IC50 [5, 15]	IC50 ([1]; Km ATP, read-out: IC50 del19/T790M/C797S, Km ATP)	IC50 ([2]; Km ATP, read-out: IC50 L858R/T790M/C797S, Km ATP)	IC50 ([3]; Km ATP, read-out: IC50 del19/C797S, Km ATP)	IC50 ([4]; Km ATP, read-out: IC50 L858R/C797S, Km ATP)	IC50 ([5]; Km ATP, read-out: IC50 WT, Km ATP)	SMILES
										3.4 nM	1.2 nM	17.4 nM	8.3 nM	147 nM	Cc1nn(CC(F)(F)F)cc1-c1cc(Nc2ncc(-c3ccn(CC(F)(F)F)n3)c(N[C@H]3CC[C@@](C)(O)CC3)n2)ccn1 [Example 370, (1s,4s)-1-Methyl-4-((2-((2-(3-methyl-1-(2,2,2-trifluoroethyl)-1H-pyrazol-4-yl)pyridin-4-yl)amino)-5-(1-(2,2,2-trifluoroethyl)-1H-pyrazol-3-yl)pyrimidin-4-yl)amino)cyclohexan-1-ol]
					3.5 nM	25.6 nM	30.1 nM	1020 nM	> 10000 nM						CN(C)C(=O)n1cc(-c2nccc(Nc3cc(N[C@H]4CC[C@@](C)(O)CC4)c(-c4ccn(C(F)F)n4)cn3)n2)cn1 [Example 311, 4-(4-((5-(1-(Difluoromethyl)-1H-pyrazol-3-yl)-4-(((1s,4s)-4-hydroxy-4-methylcyclohexyl)amino)pyridin-2-yl)amino)pyrimidin-2-yl)-N,N-dimethyl-1H-pyrazole-1-carboxamide]
0.9 nM	0.6 nM	9.1 nM	6.7 nM	109 nM	1.2 nM	1.8 nM	11.9 nM	119 nM	> 10000 nM						O=S(=O)(C1CC1)n1cc(-c2nccc(Nc3cc(NC4CCC(F)(CO)CC4)c(-c4ccn(C(F)F)n4)cn3)n2)cn1 (stereo not drawn) [Example 190, (4-((2-((2-(1-(Cyclopropylsulfonyl)-1H-pyrazol-4-yl)pyrimidin-4-yl)amino)-5-(1-(difluoromethyl)-1H-pyrazol-3-yl)pyridin-4-yl)amino)-1-fluorocyclohexyl)methanol]
		39.9 nM	146 nM	1610 nM	2.1 nM	12.6 nM	74.5 nM	627 nM	> 10000 nM						CS(=O)(=O)c1ccccc1Nc1nccc(Nc2cc(N[C@H]3CC[C@@](C)(O)CC3)c(-c3ccn(C(F)F)n3)cn2)n1 [Example 313, (1s,4s)-4-((5-(1-(Difluoromethyl)-1H-pyrazol-3-yl)-2-((2-((2-(methylsulfonyl)phenyl)amino)pyrimidin-4-yl)amino)pyridin-4-yl)amino)-1-methylcyclohexan-1-ol]
0.3 nM	0.1 nM	0.2 nM	0.2 nM	0.6 nM	0.3 nM	0.1 nM	0.2 nM	0.2 nM	128 nM						O=S(=O)(C1CC1)n1cc(-c2nccc(Nc3cc(N[C@H]4CC[C@@H](CN5CCC5)CC4)c(-c4ccn(C(F)F)n4)cn3)n2)cn1 [Example 208, N^4-((1s,4s)-4-(Azetidin-1-ylmethyl)cyclohexyl)-N^2-(2-(1-(cyclopropylsulfonyl)-1H-pyrazol-4-yl)pyrimidin-4-yl)-5-(1-(difluoromethyl)-1H-pyrazol-3-yl)pyridine-2,4-diamine]
					2.1 nM	6.7 nM	44.4 nM	962 nM	> 10000 nM						Cn1ccc(-c2cnc(Nc3ccnc(-c4cnn(S(=O)(=O)C5CC5)c4)n3)cc2N[C@H]2CC[C@H](CO)OC2)n1 [Example 227, ((2R,5S)-5-((2-((2-(1-(Cyclopropylsulfonyl)-1H-pyrazol-4-yl)pyrimidin-4-yl)amino)-5-(1-methyl-1H-pyrazol-3-yl)pyridin-4-yl)amino)tetrahydro-2H-pyran-2-yl)methanol]

Second part, the molecule before the results:

SMILES	IC50 [1, 6]	IC50 [2, 7]	IC50 [3, 8]	IC50 [4, 9]	IC50 [5, 10]	IC50 [1, 11]	IC50 [2, 12]	IC50 [3, 13]	IC50 [4, 14]	IC50 [5, 15]	IC50 ([1]; Km ATP, read-out: IC50 del19/T790M/C797S, Km ATP)	IC50 ([2]; Km ATP, read-out: IC50 L858R/T790M/C797S, Km ATP)	IC50 ([3]; Km ATP, read-out: IC50 del19/C797S, Km ATP)	IC50 ([4]; Km ATP, read-out: IC50 L858R/C797S, Km ATP)	IC50 ([5]; Km ATP, read-out: IC50 WT, Km ATP)
Cn1ccc(-c2cnc(Nc3ccnc(-c4cnn(S(=O)(=O)C5CC5)c4)n3)cc2N[C@H]2CC[C@@H](F)CC2)n1 [Example 174, N^2-(2-(1-(Cyclopropylsulfonyl)-1H-pyrazol-4-yl)pyrimidin-4-yl)-N^4-((1s,4s)-4-fluorocyclohexyl)-5-(1-methyl-1H-pyrazol-3-yl)pyridine-2,4-diamine]	1.4 nM	0.8 nM	2.4 nM	0.5 nM	13.2 nM										
Cn1ccc(-c2cnc(Nc3ccnc(-c4cnn(S(=O)(=O)C5CC5)c4)n3)cc2NC[C@H]2CC[C@H](NCC(F)F)CC2)n1 [Example 129, N^2-(2-(1-(Cyclopropylsulfonyl)-1H-pyrazol-4-yl)pyrimidin-4-yl)-N^4-(((1r,4r)-4-((2,2-difluoroethyl)amino)cyclohexyl)methyl)-5-(1-methyl-1H-pyrazol-3-yl)pyridine-2,4-diamine]						0.7 nM	0.7 nM	2 nM	14.3 nM	> 10000 nM					
Cn1ccc(-c2cnc(Nc3ccnc(-c4cnn(S(=O)(=O)C5CC5)c4)n3)cc2NC[C@H]2CC[C@](C)(O)CC2)n1 [Example 48, (1r,4r)-4-(((2-((2-(1-(Cyclopropylsulfonyl)-1H-pyrazol-4-yl)pyrimidin-4-yl)amino)-5-(1-methyl-1H-pyrazol-3-yl)pyridin-4-yl)amino)methyl)-1-methylcyclohexan-1-ol]	0.4 nM	0.2 nM	0.9 nM	1.9 nM	5.8 nM	0.4 nM	0.5 nM	0.9 nM	6.1 nM	9600 nM					
O=S(=O)(C1CC1)n1cc(-c2nccc(Nc3cc(OC4CCC(O)CC4)c(-c4ccn(C(F)F)n4)cn3)n2)cn1 (stereo not drawn) [Example 66, 4-((2-((2-(1-(Cyclopropylsulfonyl)-1H-pyrazol-4-yl)pyrimidin-4-yl)amino)-5-(1-(difluoromethyl)-1H-pyrazol-3-yl)pyridin-4-yl)oxy)cyclohexan-1-ol]	0.3 nM	0.3 nM	7.7 nM	5 nM	38.9 nM	0.4 nM	2.7 nM	4.5 nM	80.1 nM	> 10000 nM					
FC(F)Cn1cc(-c2nccc(Nc3cc(N[C@H]4CC[C@@H](F)CC4)c(-c4ccn(C(F)F)n4)cn3)n2)cn1 [Example 161, N^2-(2-(1-(2,2-Difluoroethyl)-1H-pyrazol-4-yl)pyrimidin-4-yl)-5-(1-(difluoromethyl)-1H-pyrazol-3-yl)-N^4-((1s,4s)-4-fluorocyclohexyl)pyridine-2,4-diamine]	3.2 nM	2.4 nM	276 nM	60.6 nM	640 nM										
O=S(=O)(C1CC1)n1cc(-c2nccc(Nc3cc(N[C@H]4CC[C@@H](NCC(F)F)CC4)c(-c4csc(C(F)(F)F)n4)cn3)n2)cn1 [Example 53, N^2-(2-(1-(Cyclopropylsulfonyl)-1H-pyrazol-4-yl)pyrimidin-4-yl)-N^4-((1s,4s)-4-((2,2-difluoroethyl)amino)cyclohexyl)-5-(2-(trifluoromethyl)thiazol-4-yl)pyridine-2,4-diamine]	8.5 nM	2.9 nM	7.7 nM	15 nM	105 nM	9.4 nM	11.3 nM	14.2 nM	264 nM	> 10000 nM					
Cc1cn(-c2cnc(Nc3ccnc(-c4cnn(S(=O)(=O)C5CC5)c4)n3)cc2N[C@H]2CC[C@@](C)(O)CC2)nc1C(F)(F)F [Example 186, (1s,4s)-4-((2-((2-(1-(Cyclopropylsulfonyl)-1H-pyrazol-4-yl)pyrimidin-4-yl)amino)-5-(4-methyl-3-(trifluoromethyl)-1H-pyrazol-1-yl)pyridin-4-yl)amino)-1-methylcyclohexan-1-ol]	1.3 nM	0.4 nM	32.9 nM	30.4 nM	166 nM										
